US20250255959A1, “A SYSTEM FOR DRUG-INDUCIBLE EXPRESSION OF A POLYNUCLEOTIDE” (Miltenyi Biotec B.V. & Co. KG, priority 2022, published 2025)

Tests used:
[1] = system: anti-CD20 CAR expression in primary T cells; test: Induction of anti-CD20 CAR expression in transduced primary T cells, flow cytometry; format: cell-based, human; conditions: 0-250 nM 4-OHT, 40 h
Method: Lentiviral particles encoding for the different drug-inducible cassettes were manufactured as described in example 1.2. Drug-inducible T cells were generated as described in example 1.3. 1E4 LNGFR positive drug-inducible T cells were seeded in 100 μL TexMACS medium (Miltenyi Biotec) supplemented with IL-7 (Miltenyi Biotec) and IL-15 (Miltenyi Biotec) in a 96-round bottom well plate. Anti-CD20 CAR expression was induced by the addition of different concentrations of 4-OHT (0-250 nM, Sigma-Aldrich) in 100 μL μL TexMACS medium (Miltenyi Biotec) supplemented with IL-7 (Miltenyi Biotec) and IL-15 (Miltenyi Biotec) to each well. Untransduced T cells constitute the negative control. T cells that 10 constitutively express an anti-CD20 CAR (“direct CAR”) represent the positive control. Cells were incubated at 37° C. and 5% CO2. T cells were analyzed 40h post induction for anti-CD20 CAR expression by flow cytometry using anti-CD20 CAR detection reagent-PE. […]
Staining was performed for 10 min at 4° C. followed by two successive washing steps with 200 L PEB (300 g, 5 min). […] Frequency of anti-CD20 CAR+inducible T cells (left graph) and mean fluorescence intensity (MFI) of anti-CD20 CAR expression (right graph) was determined and normalized to the expression of the transduction marker LNGFR. […]

[2] = cited from earlier work

Compound | anti-CD20 CAR surface expression (MFI) versus drug dose [1] | induction ratios of anti-CD20 CAR expression versus drug dose [1] | steady-state plasma levels ([2]; after 80 days of daily dosing) | average peak plasma concentration ([2]; single oral dose of 20 mg)
4-hydroxytamoxifen [4-OHT] | steadily increased with the drug dose | higher drug doses resulting in greater induction ratios | – | –
CC/C(=C(\c1ccccc1)c1ccc(OCCN(C)C)cc1)c1ccccc1 [tamoxifen, 2-(4-((1Z)-1,2-diphenyl-1-butenyl)phenoxy)-N,N-dimethylethanamine] | – | – | 71 to 183 ng/mL | 40 ng/mL
